Key:
Cullin2 = assay: Immunoblot of Cullin2 protein level in HeLa cells after compound treatment; assay type: cell-based, Human; details: for reduction of Cullin2 levels: 1 µM, 10 h
Experimental: Cell culture. Human cell lines HeLa, U2OS and HEK 293, purchased from ATCC, were propagated in DMEM supplemented with 10% fetal bovine serum (FBS), L- glutamine, 100 μg ml^−1 of penicillin/streptomycin at 37 °C and 5% CO2. Cells were maintained for no more than 30 passages. All cell lines were routinely tested for mycoplasma contamination using MycoAlert kit from Lonza. For compound treatment experiments, cells were transferred in six-well plates with either 3 × 10^5 or 5 × 10^5 cells per well in 2 ml of media. At 80% confluence, cells were treated with compounds at the desired concentration, reaching final DMSO concentration of 0.1% v/v. Cells were incubated at 37 °C and 5% CO2 for the desired time before harvesting.
Immunoblotting. Cells were lysed in lysis buffer (20 mM Tris pH 8, 150 mM NaCl, 1% Triton × 100) and a protease inhibitor cocktail (Roche) per 10 ml buffer. For protein extracts, the dishes were placed on ice. The media was aspirated and the tissue layer washed twice with ice-cold phosphate buffer saline (PBS). Lysis buffer (120 μl) was added and the cells detached from the surface with a cell scraper. After removal of the insoluble fraction by centrifugation, the protein concentration of the supernatant was determined by Pierce™ Coomassie (Bradford) Protein Assay Kit. Protein extracts were fractionated by SDS-PAGE on 4–12% Tris-Acetate NuPage® Novex® (Life Technologies) polyacrylamide gels and transferred to a nitrocellulose membrane using wet transfer. The membrane was then blocked with 5 % w/v Bovine serum albumin (BSA) in Tris-buffered saline (TBS) with 0.1% w/v Tween-20. […] Band quantification was performed using ImageJ software and reported as relative amount as ratio of the each protein band relative to the lane’s loading control. […]

VCB = biological target: T1, VCB (Homo sapiens, UniProt P40337); assay: AlphaLISA proximity assay of ternary complex formation; assay type: binding; details: biotinylated VCB 20 nM, His6-VCB 20 nM, compound 0.5–200 nM
T1 construct: made in house
T1 sequence (P40337 54-213): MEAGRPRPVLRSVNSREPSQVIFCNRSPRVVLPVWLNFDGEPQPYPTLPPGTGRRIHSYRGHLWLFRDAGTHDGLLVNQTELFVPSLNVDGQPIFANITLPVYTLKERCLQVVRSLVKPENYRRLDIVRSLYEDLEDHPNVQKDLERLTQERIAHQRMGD
T1 sequence (Q15369 17-112 partner limits assumed): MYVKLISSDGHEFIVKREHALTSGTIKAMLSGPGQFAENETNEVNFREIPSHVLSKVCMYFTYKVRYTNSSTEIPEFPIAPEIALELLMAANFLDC
T1 sequence (Q15370 1-104 partner limits assumed): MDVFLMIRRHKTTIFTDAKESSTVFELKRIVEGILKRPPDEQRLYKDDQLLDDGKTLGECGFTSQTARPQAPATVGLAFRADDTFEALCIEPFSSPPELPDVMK
Experimental: Biotinylation of VCB. The VCB complex was mixed with EZ-link NHS-PEG4-biotin (Thermo Scientific) in a 1:1 molar ratio and incubated at room temperature for 1 h. The reaction was quenched using 1 M Tris-HCl, pH 7.5, and unreacted NHS-biotin was removed with a PD-10 MiniTrap desalting column (GE Healthcare) equilibrated with 20 mM HEPES, pH 7.5, 150 mM NaCl and 1 mM DTT.
AlphaLISA assay. All assays were performed at room temperature in 384-well plates with a final assay volume of 25 µL per well; plates were sealed with transparent film between addition of reagents. All reagents were prepared as 5× stocks diluted in 50 mM HEPES, pH 7.5, 100 mM NaCl, 0.1% (w/v) bovine serum albumin and 0.02% (w/v) 3-[(cholamidopropyl)dimethylammonio]-1-propanesulfonate (CHAPS). Biotinylated VCB (20 nM final) and His6-VCB (20 nM final) were incubated with a range of Homo-PROTAC concentrations (0.5–200 nM; three-in-five serial dilution) for 1 h. Anti-His acceptor beads (PerkinElmer, 10 µg ml^−1 final) were added and plates were incubated for another hour. Streptavidin-coated donor beads (PerkinElmer, 10 µg ml^−1 final) were added and plates were incubated for a final 1 h. Plates were read on a PHERAstar FS (BMG Labtech) using an optic module with an excitation wavelength of 680 nm and emission wavelength of 615 nm. Intensity values were plotted against PROTAC concentration on a log10 scale.

[1] = tested on: Hypoxia response element (HRE)-luciferase reporter HeLa-HRE cells; assay: HRE-luciferase reporter assay in HeLa-HRE cells; assay type: cell-based, Human; details: different concentrations and times
Experimental: Luciferase assay. Assay was performed as described. Briefly, cells (HeLa and U2OS) stably expressing an HRE-luciferase reporter were treated for the indicated times with compounds. Cells were harvested in passive lysis buffer (Promega) and subjected to three freeze-thaw cycles. The soluble lysate fraction was used for assays, performed according to the manufacturer’s instructions (Promega) using a Berthold Lumat LB 9507 Luminometer. Results were normalized for protein concentration, and reported as mean ± s.e.m. from three biological replicates.

pVHL30 = pVHL30 (Homo sapiens, UniProt P40337); assay: Co-treatment / competition experiments on CM11-induced pVHL30 degradation in HeLa cells; assay type: cell-based; parameters: endogenous in cells; host or cells: HeLa; details: CM11 1 µM 4 h
Chain of pVHL30 (P40337 whole entry): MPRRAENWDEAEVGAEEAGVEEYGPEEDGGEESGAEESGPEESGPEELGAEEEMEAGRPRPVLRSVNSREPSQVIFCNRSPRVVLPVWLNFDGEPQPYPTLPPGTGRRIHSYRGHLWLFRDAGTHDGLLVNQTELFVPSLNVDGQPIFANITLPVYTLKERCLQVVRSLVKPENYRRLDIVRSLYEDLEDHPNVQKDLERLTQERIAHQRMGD
Experimental: ML4924 and MG132 co-treatment. Cells were transferred in six-well plates with 5 × 10^5 cells per well in 2 ml media in order to achieve 80% confluence the day after. At t = 0, MLN4924 was added into the desired wells at 3 μM final concentration and 0.1% v/v of DMSO. DMSO (0.1% v/v final conc.) was added to the remaining wells in order to match identical conc. of vehicle in all wells. At t = 3 h, MG 132 was added into the desired wells at 50 μM final conc. and 0.1% v/v of DMSO. DMSO (0.1% v/v final conc.) was added to the remaining wells in order to achieve the same conc. of vehicle in all the wells. […] DMSO (0.1% v/v final conc.) was added to the remaining wells to obtain the same conc. of vehicle in all the wells. The total final concentration of DMSO was therefore 0.3% v/v. Plates were incubated for 4 h at 37 °C and 5% CO2 before harvesting. […] Plates were incubated for the desired time at 37 °C and 5% CO2 before harvesting.
Immunoblotting. Cells were lysed in lysis buffer (20 mM Tris pH 8, 150 mM NaCl, 1% Triton × 100) and a protease inhibitor cocktail (Roche) per 10 ml buffer. For protein extracts, the dishes were placed on ice. The media was aspirated and the tissue layer washed twice with ice-cold phosphate buffer saline (PBS). Lysis buffer (120 μl) was added and the cells detached from the surface with a cell scraper. After removal of the insoluble fraction by centrifugation, the protein concentration of the supernatant was determined by Pierce™ Coomassie (Bradford) Protein Assay Kit. Protein extracts were fractionated by SDS-PAGE on 4–12% Tris-Acetate NuPage® Novex® (Life Technologies) polyacrylamide gels and transferred to a nitrocellulose membrane using wet transfer. The membrane was then blocked with 5 % w/v Bovine serum albumin (BSA) in Tris-buffered saline (TBS) with 0.1% w/v Tween-20. For detecting proteins the following primary antibodies in the given concentrations were used: anti-β-Actin (Cell Signaling Technology, 4970S, 13E5) 1:2000, anti-VHL (Cell Signaling Technology, #68547) 1:1000, anti-Hif-1α (BD Biosciences, 610959, clone 54) 1:1,000, anti-hydroxy-HIF-1α (Hyp564) (Cell Signaling Techonology; #3434) 1:1,000, anti-PHD2 (Bethyl Laboratories; A300-322A) 1:1,000, anti-PHD3 (Bethyl Laboratories; A300-327A) 1:1000, anti-CRBN (Proteintech; 11435-1-AP) 1:1,000. Following incubation with a horseradish peroxidase-conjugated secondary antibody (Cell Signaling Technology), the signal was developed using enhanced chemiluminescence (ECL) Western Blotting Detection Kit (Amersham) on Amersham Hyperfilm ECL film (Amersham). Band quantification was performed using ImageJ software and reported as relative amount as ratio of the each protein band relative to the lane’s loading control. The values obtained were then normalized to 0.1% DMSO vehicle control. […]

Compound	reduction of Cullin2 levels (Cullin2)	ternary complex formation, AlphaLISA intensity (VCB)	decrease of cellular levels of Cullin2 (Cullin2; dose-response, 4 or 24 h, Fig. 5a)	luciferase activity relative to DMSO control [1]	CM11 activity after pre-treatment with IOX4 (pVHL30; IOX4 50 µM)	CM11-induced degradation of pVHL30 after pre-treatment with MG132 (pVHL30; MG132 50 µM)	CM11-induced degradation after pre-treatment with MLN4924 (pVHL30; MLN4924 3 µM)	CM11-induced pVHL degradation after pre-treatment with VH032 (pVHL30; VH032 150 µM for 30 min)
Cc1ncsc1-c1ccc(CNC(=O)[C@@H]2C[C@@H](O)CN2C(=O)[C@@H](NC(=O)COCCOCCOCCOCCOCC(=O)N[C@H](C(=O)N2C[C@H](O)C[C@H]2C(=O)NCc2ccc(-c3scnc3C)cc2)C(C)(C)C)C(C)(C)C)cc1 [CM10, N ^1 ,N ^17-bis((S)-1-((2S,4R)-4-hydroxy-2-((4-(4-methylthiazol-5-yl)benzyl)carbamoyl)pyrrolidin-1-yl)-3,3-dimethyl-1-oxobutan-2-yl)-3,6,9,12,15-pentaoxaheptadecanediamide]	up to 22%	negligible levels of complex formation	–	–	–	–	–	–
Cc1ncsc1-c1ccc(CNC(=O)[C@@H]2C[C@@H](O)CN2C(=O)[C@@H](NC(=O)COCCOCCOCCOCCOCCOCC(=O)N[C@H](C(=O)N2C[C@H](O)C[C@H]2C(=O)NCc2ccc(-c3scnc3C)cc2)C(C)(C)C)C(C)(C)C)cc1 [CM11, N ^1 ,N ^20-bis((S)-1-((2S,4R)-4-hydroxy-2-((4-(4-methylthiazol-5-yl)benzyl)carbamoyl)pyrrolidin-1-yl)-3,3-dimethyl-1-oxobutan-2-yl)-3,6,9,12,15,18-hexaoxaicosanediamide]	up to 22%	highest intensity signal	up to 73%	no increase	did not impact CM11 activity	completely abrogated	prevented	blocked pVHL degradation
Cc1ncsc1-c1ccc(CNC(=O)[C@@H]2C[C@@H](O)CN2C(=O)[C@@H](NC(=O)COCCOCCOCCOCC(=O)N[C@H](C(=O)N2C[C@H](O)C[C@H]2C(=O)NCc2ccc(-c3scnc3C)cc2)C(C)(C)C)C(C)(C)C)cc1 [CM09, N ^1 ,N ^14-bis((S)-1-((2S,4R)-4-hydroxy-2-((4-(4-methylthiazol-5-yl)benzyl)carbamoyl)pyrrolidin-1-yl)-3,3-dimethyl-1-oxobutan-2-yl)-3,6,9,12-tetraoxatetradecanediamide]	–	negligible levels of complex formation	–	–	–	–	–	–

From paper PMC5635026, “Homo-PROTACs: bivalent small-molecule dimerizers of the VHL E3 ubiquitin ligase to induce self-degradation” (Nature Communications, 2017)
